From PubChem BioAssay AID2060347 (Molecular Pharmacology Branch, DTP, NCI, 2025)
Several values for one entry are separate records, joined by “and”; a condition that tells them apart may be missing. Equal entries are not always repeated.

Tested on: 817829-284-R-J1-PDC spheroids with HUVEC/MSC, viability
Test: Anticancer human tumor 817829-284-R-J1-PDC patient-derived colon adenocarcinoma cell line growth inhibition [TAK]
Details: for viability, T/C: stronger effect = lower value
Excerpt: Combinatorial screen of targeted agents with TAK-243 and ipatasertib in multi-cell type tumor spheroids
A high-throughput screen of multi-cell type tumor spheroids was designed to identify active combinations of targeted small molecules and TAK-243 or ipatasertib. Complex spheroids include a stromal component modeled by human endothelial cells (HUVEC) and fibroblasts modeled by human mesenchymal stem cells (MSCs). The concentration ranges selected for each drug and investigational agent were based upon clinically achievable concentrations if the clinical Cmax of the agent was known.
Compounds. The drugs and investigational agents: TAK-243 (785004), ipatasertib (767898), everolimus (733504), selumetinib (741078), bortezomib (756655), trametinib (758246), ixazomib (758254), vemurafenib (761431), dabrafenib (764134), sapanisertib (764658), alpelisib (765974), and copanlisib (816437), were obtained from the National Cancer Institute (NCI) Developmental Therapeutics Program Chemical Repository. The FDA-approved anticancer drug set is available from the NCI Developmental Therapeutics Program. […] The stock solutions were prepared in dimethyl sulfoxide (DMSO, Sigma-Aldrich, St. Louis, MO, cat. D2650) at 800-fold the tested concentration and stored at -70 degrees C prior to their use. All drugs and investigational agents were tested over a range starting from a high concentration at or near the clinical Cmax and decreasing in half-log increments. If the clinical Cmax for an agent had not been determined, the highest concentration tested was 10 microM.
NCI60 Cell Culture. NCI60 cell lines were obtained from the NCI Developmental Therapeutics Program Tumor Repository. For each lot of cells, the Repository performed Applied Biosystems AmpFLSTR Identifiler testing with PCR amplification to confirm consistency with the published Identifier STR profile for each cell line. Cells were kept in continuous culture for no more than 20 passages. The optimal seeding densities for each of the cell lines at each time point assessed were determined prior to performing the concentration response studies. Briefly, the NCI60 human tumor lines were grown as monolayers in RPMI 1640 medium supplemented with 10% FBS and 2 mmol/L L-glutamine.
An additional 2 lines were from the NCI60 cell line panel including melanomas, MALME-3M and SK-MEL-2. Pooled donor human umbilical vein endothelial cells (HUVEC, Lonza, cat. CC-2519) and human mesenchymal stem cells (hMSC, Lonza, cat. PT-2501) were purchased from Lonza (Walkersville, MD).
PDMR cell lines were grown in complete medium (DC medium): Dulbecco's modified Eagle's medium (DMEM)/F12 supplemented with 5% fetal bovine serum (FBS), 2 mM L-glutamine, 100 U/mL penicillin and 100 µg/ml streptomycin, 0.4 µg/ml hydrocortisone, 10 ng/ml epidermal growth factor (EGF) recombinant human protein, 24 µg/mL adenine, and 0.1 mg/mL primocin. During culture from frozen stock vials, PDMR cells were cultured in the same medium containing 10 µM Y-27632 (see Table 3). The PDCs were cultured in complete DMEM/F12 media without 10 microM Y-27632 dihydrochloride for at least two passages prior to the screen. The pooled donor HUVEC and hMSC were cultured in endothelial cell growth medium 2 (PromoCell, Heidelberg, Germany, cat. C-22011) and mesenchymal stem cell growth medium 2 (PromoCell, cat. C-28009), respectively. For all experiments, HUVEC and hMSC were used at passages </=5.
For the pre-screen, cell seeding densities were determined from a titration spanning the range from 5,000 to 313 cells per well. The mct-spheroids including 60% malignant cells, 25% HUVEC and 15% MSC dispensed as a mixture into U-bottom Ultra-Low Attachment 384-well plates (Corning, NY)
High-throughput Drug Combination Screening.
Prior to their inoculation into 384-well plates, malignant cells, HUVEC, and hMSC were removed from T flasks using TrypLE express (Thermo Fisher Scientific, cat. 12605036) and harvested by centrifugation for 5 min at 233 x g. […]

[1] = curve of first compound, second compound 0.3 µM
[2] = curve of first compound, second compound 0.949 µM
[3] = curve of first compound, second compound 3 µM
[4] = curve of first compound, second compound 9.49 µM
[5] = curve of first compound, second compound 30 µM
[6] = second compound 0.3 µM, first compound 0.316 µM
[7] = second compound 0.3 µM, first compound 1 µM
[8] = second compound 0.3 µM, first compound 3.16 µM
[9] = second compound 0.3 µM, first compound 10 µM
[10] = second compound 0.949 µM, first compound 0.316 µM
[11] = second compound 0.949 µM, first compound 1 µM
[12] = second compound 0.949 µM, first compound 3.16 µM
[13] = second compound 0.949 µM, first compound 10 µM
[14] = second compound 3 µM, first compound 0.316 µM
[15] = second compound 3 µM, first compound 1 µM
[16] = second compound 3 µM, first compound 3.16 µM
[17] = second compound 3 µM, first compound 10 µM
[18] = second compound 9.49 µM, first compound 0.316 µM
[19] = second compound 9.49 µM, first compound 1 µM
[20] = second compound 9.49 µM, first compound 3.16 µM
[21] = second compound 9.49 µM, first compound 10 µM
[22] = second compound 30 µM, first compound 0.316 µM
[23] = second compound 30 µM, first compound 1 µM
[24] = second compound 30 µM, first compound 3.16 µM
[25] = second compound 30 µM, first compound 10 µM

Q: Which results are given for Cc1nc(NC(=O)N2CCCC2C(N)=O)sc1-c1ccnc(C(C)(C)C(F)(F)F)c1 (stereo unspecified) + CC(C)NCC(C(=O)N1CCN(c2ncnc3c2C(C)CC3O)CC1)c1ccc(Cl)cc1?
A: IC50 [1]: 1.19 µM; IC50 [2]: 0.0762 µM; IC50 [3]: < 0.0316 µM; IC50 [4]: < 0.0316 µM; IC50 [5]: < 0.0316 µM; viability, T/C (second compound 0.3 µM, first compound 0.0316 µM): 87.9%; viability, T/C (second compound 0.3 µM, first compound 0.1 µM): 80.6%; viability, T/C [6]: 74.8%; viability, T/C [7]: 51.9%; viability, T/C [8]: 37%; viability, T/C [9]: 33.1%; viability, T/C (second compound 0.949 µM, first compound 0.0316 µM): 61.8%; viability, T/C (second compound 0.949 µM, first compound 0.1 µM): 48.5%; viability, T/C [10]: 28.4%; viability, T/C [11]: 26.7%; viability, T/C [12]: 14.4%; viability, T/C [13]: 8.03%; viability, T/C (second compound 3 µM, first compound 0.0316 µM): 18.1%; viability, T/C (second compound 3 µM, first compound 0.1 µM): 17%; viability, T/C [14]: 13.2%; viability, T/C [15]: 6.56%; viability, T/C [16]: 6.29%; viability, T/C [17]: 5.54%; viability, T/C (second compound 9.49 µM, first compound 0.0316 µM): 9.9%; viability, T/C (second compound 9.49 µM, first compound 0.1 µM): 9.69%; viability, T/C [18]: 8.57%; viability, T/C [19]: 5.76%; viability, T/C [20]: 3.41%; viability, T/C [21]: 2.85%; viability, T/C (second compound 30 µM, first compound 0.0316 µM): 6.53%; viability, T/C (second compound 30 µM, first compound 0.1 µM): 6.06%; viability, T/C [22]: 4.67%; viability, T/C [23]: 3.84%; viability, T/C [24]: 2.64%; viability, T/C [25]: 1.58%

Q: For Cc1nc(NC(=O)N2CCCC2C(N)=O)sc1-c1ccnc(C(C)(C)C(F)(F)F)c1 (stereo unspecified), which viability, T/C (compound 0.0316 µM) is on record?
A: 96.8% and 102%

Q: And the viability, T/C (compound 0.1 µM)?
A: 98.7% and 96.4%

Q: And the viability, T/C (compound 0.316 µM)?
A: 94.8% and 94.7%

Q: And the viability, T/C (compound 1 µM)?
A: 88.1% and 93%

Q: And the viability, T/C (compound 3.16 µM)?
A: 79.6% and 80%

Q: What about the viability, T/C (compound 10 µM) of the same molecule?
A: 48.1% and 49.1%

Q: What about the IC50 (curve of compound) of the same molecule?
A: 9.42 µM and 9.84 µM

Q: CCCS(=O)(=O)Nc1ccc(F)c(C(=O)c2c[nH]c3ncc(-c4ccc(Cl)cc4)cc23)c1F + CC(C)NCC(C(=O)N1CCN(c2ncnc3c2C(C)CC3O)CC1)c1ccc(Cl)cc1 was tested. Which IC50 [1] did it give?
A: 1.9 µM

Q: What about the IC50 [2] of the same molecule?
A: < 0.316 µM

Q: And the IC50 [3]?
A: < 0.316 µM

Q: What about the IC50 [4] of the same molecule?
A: < 0.316 µM

Q: And the IC50 [5]?
A: < 0.316 µM

Q: And the viability, T/C [6]?
A: 78.3%

Q: And the viability, T/C [7]?
A: 66.9%

Q: And the viability, T/C [8]?
A: 38%

Q: And the viability, T/C [9]?
A: 12.7%

Q: And the viability, T/C (second compound 0.3 µM, first compound 31.6 µM)?
A: 20%

Q: And the viability, T/C (second compound 0.3 µM, first compound 100 µM)?
A: 46.3%

Q: And the viability, T/C [10]?
A: 29.6%

Q: What about the viability, T/C [11] of the same molecule?
A: 26.4%

Q: What about the viability, T/C [12] of the same molecule?
A: 20.5%

Q: And the viability, T/C [13]?
A: 10.8%

Q: What about the viability, T/C (second compound 0.949 µM, first compound 31.6 µM) of the same molecule?
A: 5.67%

Q: And the viability, T/C (second compound 0.949 µM, first compound 100 µM)?
A: 17.3%

Q: What about the viability, T/C [14] of the same molecule?
A: 18.5%

Q: What about the viability, T/C [15] of the same molecule?
A: 14.3%

Q: What about the viability, T/C [16] of the same molecule?
A: 11.6%

Q: And the viability, T/C [17]?
A: 4.96%

Q: And the viability, T/C (second compound 3 µM, first compound 31.6 µM)?
A: 1.71%

Q: And the viability, T/C (second compound 3 µM, first compound 100 µM)?
A: 12.3%

Q: And the viability, T/C [18]?
A: 9.5%

Q: And the viability, T/C [19]?
A: 7.83%

Q: And the viability, T/C [20]?
A: 7.41%

Q: And the viability, T/C [21]?
A: 2.4%

Q: What about the viability, T/C (second compound 9.49 µM, first compound 31.6 µM) of the same molecule?
A: 0.86%

Q: And the viability, T/C (second compound 9.49 µM, first compound 100 µM)?
A: 7.59%

Q: What about the viability, T/C [22] of the same molecule?
A: 5.18%

Q: And the viability, T/C [23]?
A: 5.41%

Q: What about the viability, T/C [24] of the same molecule?
A: 2.16%

Q: What about the viability, T/C [25] of the same molecule?
A: 0.51%

Q: And the viability, T/C (second compound 30 µM, first compound 31.6 µM)?
A: 0.2%

Q: And the viability, T/C (second compound 30 µM, first compound 100 µM)?
A: 1.89%

Q: For COC1CC2CCC(C)C(O)(O2)C(=O)C(=O)N2CCCCC2C(=O)OC(C(C)CC2CCC(OCCO)C(OC)C2)CC(=O)C(C)C=C(C)C(O)C(OC)C(=O)C(C)CC(C)C=CC=CC=C1C (stereo unspecified), which viability, T/C (compound 0.000316 µM) is on record?
A: 104% and 110%

Q: And the viability, T/C (compound 0.001 µM)?
A: 99.8% and 102%

Q: And the viability, T/C (compound 0.00316 µM)?
A: 94% and 99.6%

Q: And the viability, T/C (compound 0.01 µM)?
A: 81% and 86.2%

Q: And the viability, T/C (compound 0.0316 µM)?
A: 79.2% and 82.3%

Q: And the viability, T/C (compound 0.1 µM)?
A: 63.9% and 75%

Q: What about the IC50 (curve of compound) of the same molecule?
A: > 0.1 µM

Q: For CCCS(=O)(=O)Nc1ccc(F)c(C(=O)c2c[nH]c3ncc(-c4ccc(Cl)cc4)cc23)c1F, which viability, T/C (compound 0.316 µM) is on record?
A: 89.1% and 93%

Q: What about the viability, T/C (compound 1 µM) of the same molecule?
A: 81.3% and 89.1%

Q: And the viability, T/C (compound 3.16 µM)?
A: 62.7% and 34.4%

Q: And the viability, T/C (compound 10 µM)?
A: 12.4% and 10.9%

Q: And the viability, T/C (compound 31.6 µM)?
A: 56.8% and 26.3%

Q: What about the viability, T/C (compound 100 µM) of the same molecule?
A: 59.9% and 43.6%

Q: And the IC50 (curve of compound)?
A: 6.65 µM and 2.27 µM
